Laboratory results reported in ChEMBL document CHEMBL2074205, “Inhibitory potencies of 1,4-dihydropyridine calcium antagonists to P-glycoprotein-mediated transport: comparison with the effects on CYP3A4” (Pharm Res, 2000).

Legend:
Type in all cases: functional, cell-based
[1] = molecular target: T1, ATP-dependent translocase ABCB1 (Homo sapiens, UniProt P08183); test: TP_TRANSPORTER: inhibition of Daunorubicin transepithelial transport (basal to apical) (Daunorubicin: 0.035 uM) in MDR1-expressing LLC-PK1 cells
T1 sequence (P08183 whole entry): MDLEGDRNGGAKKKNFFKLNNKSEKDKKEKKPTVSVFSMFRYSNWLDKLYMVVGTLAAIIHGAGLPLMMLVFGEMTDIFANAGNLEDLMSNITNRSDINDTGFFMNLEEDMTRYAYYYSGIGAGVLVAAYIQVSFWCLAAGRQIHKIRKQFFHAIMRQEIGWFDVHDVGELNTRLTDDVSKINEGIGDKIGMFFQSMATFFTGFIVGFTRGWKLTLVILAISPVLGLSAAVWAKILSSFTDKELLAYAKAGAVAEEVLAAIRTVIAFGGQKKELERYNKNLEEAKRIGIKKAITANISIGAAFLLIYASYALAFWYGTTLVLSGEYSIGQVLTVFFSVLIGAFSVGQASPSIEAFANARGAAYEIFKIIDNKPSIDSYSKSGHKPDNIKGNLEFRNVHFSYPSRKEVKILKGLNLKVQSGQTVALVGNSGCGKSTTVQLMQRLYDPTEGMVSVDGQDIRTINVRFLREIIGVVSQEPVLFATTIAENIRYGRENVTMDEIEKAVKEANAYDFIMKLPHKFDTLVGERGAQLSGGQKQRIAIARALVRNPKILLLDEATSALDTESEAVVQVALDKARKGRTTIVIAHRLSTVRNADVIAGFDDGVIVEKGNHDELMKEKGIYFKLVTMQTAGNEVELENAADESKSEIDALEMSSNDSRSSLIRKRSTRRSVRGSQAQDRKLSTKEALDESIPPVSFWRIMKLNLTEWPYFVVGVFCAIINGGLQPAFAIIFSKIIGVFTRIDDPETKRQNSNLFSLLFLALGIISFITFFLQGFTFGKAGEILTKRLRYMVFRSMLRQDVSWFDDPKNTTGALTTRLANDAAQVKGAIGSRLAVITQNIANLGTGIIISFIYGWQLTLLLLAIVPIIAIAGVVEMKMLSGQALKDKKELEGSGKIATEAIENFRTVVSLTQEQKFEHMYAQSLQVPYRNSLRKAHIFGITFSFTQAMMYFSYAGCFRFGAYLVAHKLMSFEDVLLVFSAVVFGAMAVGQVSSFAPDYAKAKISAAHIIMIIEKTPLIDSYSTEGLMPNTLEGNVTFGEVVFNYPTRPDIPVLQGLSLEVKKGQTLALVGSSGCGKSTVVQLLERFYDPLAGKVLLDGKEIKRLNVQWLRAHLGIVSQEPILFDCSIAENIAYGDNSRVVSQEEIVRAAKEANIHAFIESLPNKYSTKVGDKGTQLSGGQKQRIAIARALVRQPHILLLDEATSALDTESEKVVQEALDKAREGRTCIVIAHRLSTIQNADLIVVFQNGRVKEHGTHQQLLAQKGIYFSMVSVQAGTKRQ

[2] = molecular target: T1, ATP-dependent translocase ABCB1; test: TP_TRANSPORTER: inhibition of Daunorubicin transepithelial transport (basal to apical), (+)-efonidipine (Daunorubicin: 0.035 uM) in MDR1-expressing LLC-PK1 cells
[3] = molecular target: T1, ATP-dependent translocase ABCB1; test: TP_TRANSPORTER: inhibition of Daunorubicin transepithelial transport (basal to apical), (-)-efonidipine (Daunorubicin: 0.035 uM) in MDR1-expressing LLC-PK1 cells

| IC50 [1] [µM] | IC50 [2] [µM] | IC50 [3] [µM] | Compound |
| --- | --- | --- | --- |
| – | 20.6 | 17.3 | CC1=C(C(=O)OCCN(Cc2ccccc2)c2ccccc2)C(c2cccc([N+](=O)[O-])c2)C(P2(=O)OCC(C)(C)CO2)=C(C)N1 (stereo unspecified) [EFONIDIPINE] |
| 4.6 | – | – | COC(=O)C1=C(C)NC(C)=C(C(=O)OCCN2CCN(C(c3ccccc3)c3ccccc3)CC2)C1c1cccc([N+](=O)[O-])c1 (stereo unspecified) [MANIDIPINE 6300] |

The remaining lines, values behind:

| Compound | IC50 [1] [µM] | IC50 [2] [µM] | IC50 [3] [µM] |
| --- | --- | --- | --- |
| COC(=O)C1=C(C)NC(C)=C(C(=O)O[C@@H]2CCCN(Cc3ccccc3)C2)C1c1cccc([N+](=O)[O-])c1 (stereo partly specified) | 9.5 | – | – |
| CCOC(=O)C1=C(COCCN)NC(C)=C(C(=O)OC)C1c1ccccc1Cl (stereo unspecified) [AMLODIPINE] | 22 | – | – |
| COC(=O)C1=C(C)NC(C)=C(C(=O)O[C@H]2CCN(Cc3ccccc3)C2)[C@H]1c1cccc([N+](=O)[O-])c1 [BARNIDIPINE] | 8.6 | – | – |
